Key:
[1] = tested on: Ovarian cancer A2780; experiment: In vitro proliferation assay (sulphorodamine B); type: cell-based; conditions: Homo sapiens, 72 h, mean ± S.E.M.
[2] = tested on: NSCLC NCI-H460; experiment: In vitro proliferation assay (sulphorodamine B); type: cell-based; conditions: Homo sapiens, 72 h, mean ± S.E.M.

**Q.** How did the IC50 [1] turn out when `CC(=O)SCCCCC[C@H](NC(=O)[C@H]1CCC(=O)N1)C(=O)Nc1ccccc1` [ST7612AA1] was run?
**A.** Its IC50 is 43 ± 10 nM.

**Q.** What about the IC50 [2] of the same molecule?
**A.** Its IC50 is 66 ± 10 nM.
